Common to all, as to experiment: Live/dead ratio, trypan blue and automated cell counter
Common to all, as to format: cell-based, human

The subject of one assay is HEK293 cells. To be noted: HEK293, non-secretory; 2 μM monensin over 2 days. Here is the method: (§1) Various cell lines treated with 2 μM of monensin over 2 days show increased cell death. Cells were counted using countess 2 automated cell counter to determine live/dead ratios.
(§2) HEK 293, IMR-90 and HeLa cells were grown in DMEM supplemented with 10% fetal bovine serum, 1% Penicillin/streptomycin and L-glutamine (2 mmole/liter) (Biological industries) at 37° C. with 5% CO2. Drugs were introduced to cells for 2 hrs at varying concentrations. Tunicamycin (Sigma) was given at 5 μg/ml. Treatment with the glycosylation inhibitor tunicamycin is known to cause accumulation of unfolded glycoproteins in the ER which is followed by […] of these aberrant proteins. […] Monensin (Enco scientific services) was given at 2 mM and MG-132 (Biotest) at 40 μM. Monensin is an antibiotic, commercially known as Golgi-stop. This drug inhibits the transport of proteins between the medial and trans-Golgi stacks thus also inhibiting phosphorylation, addition of galactose to glycoproteins and sulfation that occur in the trans-Golgi (Griffiths et al., 1983; Rosa et al., 1992). Cell death assessment was done by trypan blue staining and counted with Countess IFM automated cell counter (Thermo Fisher). Proliferation of mammalian cells was measured by XTT assay.
(§3) Accumulation of proteins in cells is highly cytotoxic. This cytotoxicity is potentially higher in highly secretory cells, wherein a large mass of proteins is constantly moving through the Golgi apparatus. […] The present inventors examined the long-term effect of Golgi traffic inhibition on secretory cells. Four human cell lines were selected, two that are non-secretory (HEK293 and HeLa) and two secretory cell lines (HepG2 and RPMI 8226) and assessed their live/dead ratios over 2 days of treatment with monensin.

A further assay deals with HeLa cells. To be noted: non-secretory, 2 μM monensin over 2 days. The procedure: as §1, §2, §3
For a further assay, the system named is HepG2 cells. To be noted: HepG2, secretory; 2 μM monensin over 2 days. The procedure:
as §1, §2, §3

We go through one compound from US20200268707A1, “METHODS OF MODULATING PROTEIN EXOCYTOSIS AND USES OF SAME IN THERAPY” (Yeda Research and Development Co. Ltd., priority 2016, published 2020).

Structures are written as SMILES. “Also recorded” adds a separate entry of the source.

Consider `CC[C@@]1([C@@H]2O[C@@H]([C@H]3O[C@@](O)(CO)[C@H](C)C[C@@H]3C)C[C@@H]2C)CC[C@H]([C@]2(C)CC[C@]3(C[C@H](O)[C@@H](C)[C@@H]([C@@H](C)[C@@H](OC)[C@H](C)C(=O)O)O3)O2)O1` [monensin], for which the “cell death (live/dead ratio)” value in the assay with HEK293 cells is reported as “little effect”; with HeLa cells, “little effect; also recorded: largely insensitive”; with HepG2 cells, “more susceptible to cell death”.
